From US8871756B2 (Hoffmann-La Roche Inc., priority 2011, dated 2014)

The molecules below were run on RSV Long strain (assay: Viral cytopathic effect (CPE) assay, anti-RSV activity). Conditions: human respiratory syncytial virus, 144 h, RSV Long strain (ATCC); cell viability after 6 days, Cell Counting kit-8.
Format: cell-based, Respiratory Syncytial Virus
In short: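 EC50 was derived from CCK-8 viability at 450/630 nm measured 6 days post-infection. Infection used enough RSV Long strain for approximately 80–90% cytopathic effect, in the presence of half-log serially diluted compound. Cells were plated the day before at 6×10^3 per well in DMEM/10% FBS.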

Point of comparison: CCS(=O)(=O)c1ccc2c(c1)CCCN(c1cc(NCCN)c3ccccc3n1)C2 [Example 120-2, N-{2-[7-(Ethylsulfonyl)-1,3,4,5-tetrahydro-2H-2-benzazepin-2-yl]quinolin-4-yl}ethane-1,2-diamine], EC50 1.79 µM. Against it:
- N#Cc1ccc2nc(N3CCS(=O)(=O)c4ccccc4C3)cc(NCCCN)c2c1 [Example 52, 4-[(3-Aminopropyl)amino]-2-(1,1-dioxido-2,3-dihydro-1,4-benzothiazepin-4(5H)-yl)quinoline-6-carbonitrile] — 4.3-fold lower, 0.419 µM
- COc1ccc2c(c1)CN(c1cc(N)c3cc(C)ccc3n1)CCS2(=O)=O [Example 20-2, 2-(7-Methoxy-1,1-dioxido-2,3-dihydro-1,4-benzothiazepin-4(5H)-yl)-6-methylquinolin-4-amine] — 5.8-fold lower, 0.31 µM
- Cc1ccc2nc(N3CCC(F)(F)c4ccccc4C3)cc(NCCCO)c2c1 [Example 110-6, 3-{[2-(5,5-Difluoro-1,3,4,5-tetrahydro-2H-2-benzazepin-2-yl)-6-methylquinolin-4-yl]amino}propan-1-ol] — 2.4-fold higher, 4.28 µM
- NCCNc1cc(N2CCCc3ccc(O)cc3C2)nc2ccccc12 [Example 118-2, 2-{4-[(2-Aminoethyl)amino]quinolin-2-yl}-2,3,4,5-tetrahydro-1H-2-benzazepin-8-ol] — 37-fold lower, 0.048 µM
- Cc1cc2c(NCC3(N)COC3)cc(N3CCS(=O)(=O)c4ccccc4C3)nc2c(F)c1F [Example 5-10, N-[(3-Aminooxetan-3-yl)methyl]-2-(1,1-dioxido-2,3-dihydro-1,4-benzothiazepin-4(5H)-yl)-7,8-difluoro-6-methylquinolin-4-amine] — 4.5-fold lower, 0.397 µM
- O=S1(=O)CCN(c2nc(NCC(O)CO)c3cc(Cl)ccc3n2)Cc2ccccc21 (centres unmarked) [Example 87-2] — 5.2-fold higher, 9.31 µM
- Cc1ccc2nc(N3CCS(=O)(=O)c4ccccc4C3)cc(NC3CNC3)c2c1 [Example 26-1, N-(Azetidin-3-yl)-2-(1,1-dioxido-2,3-dihydro-1,4-benzothiazepin-4(5H)-yl)-6-methylquinolin-4-amine] — 360-fold lower, 0.005 µM
- Cc1cc2c(NCC3(N)COC3)cc(N3CCS(=O)(=O)c4ccccc4C3)nc2cc1F [Example 3-24, N-[(3-Aminooxetan-3-yl)methyl]-2-(1,1-dioxido-2,3-dihydro-1,4-benzothiazepin-4(5H)-yl)-7-fluoro-6-methylquinolin-4-amine] — 85-fold lower, 0.021 µM
- Cc1ccc2nc(N3CCS(=O)(=O)c4ccccc4C3)cc(NC(=O)C3CCCNC3)c2c1 (centres unmarked) [Example 3-61, N-[2-(1,1-Dioxido-2,3-dihydro-1,4-benzothiazepin-4(5H)-yl)-6-methylquinolin-4-yl]piperidine-3-carboxamide] — 15-fold lower, 0.118 µM
- COc1ccc2c(c1)CN(c1cc(NCC3(N)COC3)c3ccccc3n1)CCS2(=O)=O [Example 1-7, N-[(3-Aminooxetan-3-yl)methyl]-2-(7-methoxy-1,1-dioxido-2,3-dihydro-1,4-benzothiazepin-4(5H)-yl)-quinolin-4-amine] — 81-fold lower, 0.022 µM
- COc1ccc2c(c1)CCCN(c1cc(NCCN)c3ccccc3n1)C2 [Example 118-15, N-[2-(7-Methoxy-1,3,4,5-tetrahydro-2H-2-benzazepin-2-yl)quinolin-4-yl]ethane-1,2-diamine] — 2.9-fold lower, 0.626 µM
- COCCOc1ccc2nc(N3CCS(=O)(=O)c4ccccc4C3)cc(NCCCN)c2c1 [Example 30-2, N-[2-(1,1-Dioxido-2,3-dihydro-1,4-benzothiazepin-4(5H)-yl)-6-(2-methoxyethoxy)quinolin-4-yl]propane-1,3-diamine] — 8.2-fold lower, 0.218 µM
- Cc1ccc2nc(N3CCS(=O)(=O)c4ccccc4C3)cc(NC(=O)C3CCN3)c2c1 (centres unmarked) [Example 49, N-[2-(1,1-Dioxido-2,3-dihydro-1,4-benzothiazepin-4(5H)-yl)-6-methylquinolin-4-yl]azetidine-2-carboxamide] — 2.5-fold lower, 0.721 µM
- Cc1ccc2nc(N3CCC(F)(F)c4ccccc4C3)cc(NCCS(=O)(=O)CCN)c2c1 [Example 113, N-{2-[(2-Aminoethyl)sulfonyl]ethyl}-2-(5,5-difluoro-1,3,4,5-tetrahydro-2H-2-benzazepin-2-yl)-6-methylquinolin-4-amine] — 2.4-fold lower, 0.733 µM
- N[C@@H]1CN(c2cc(N3CCS(=O)(=O)c4ccccc4C3)nc3ccncc23)C[C@H]1O (relative stereo) [Example 24, trans-4-Amino-1-[2-(1,1-dioxido-2,3-dihydro-1,4-benzothiazepin-4(5H)-yl)-1,6-naphthyridin-4-yl]pyrrolidin-3-ol] — 110-fold lower, 0.016 µM
- Cc1ccc2c(c1)S(=O)(=O)CCN(c1cc(NCC3(CN)COC3)c3ccccc3n1)C2 [Example 3-7] — 200-fold lower, 0.009 µM
- NCCCNc1cc(N2CCS(=O)(=O)c3ccccc3C2)nc2ccc(C(N)=O)cc12 [Example 81, 4-[(3-Aminopropyl)amino]-2-(1,1-dioxido-2,3-dihydro-1,4-benzothiazepin-4(5H)-yl)quinoline-6-carboxamide] — 5.1-fold lower, 0.353 µM
- CCNCCNc1cc(N2CCS(=O)(=O)c3ccccc3C2)nc2ccc(C)cc12 [Example 3-37, N-[2-(1,1-Dioxido-2,3-dihydro-1,4-benzothiazepin-4(5H)-yl)-6-methylquinolin-4-yl]-N′-ethylethane-1,2-diamine] — 110-fold lower, 0.017 µM
- CCN(CCNc1cc(N2CCS(=O)(=O)c3ccccc3C2)nc2ccc(C)cc12)C1COC1 [Example 44-2, N′-[2-(1,1-Dioxido-2,3-dihydro-1,4-benzothiazepin-4(5H)-yl)-6-methylquinolin-4-yl]-N-ethyl-N-(oxetan-3-yl)ethane-1,2-diamine] — within 1.5-fold, 1.55 µM
- Cc1ccc2nc(N3CCC(F)(F)c4ccccc4C3)cc(NCC(C)(C)N)c2c1 [Example 110-12, N˜1˜-[2-(5,5-Difluoro-1,3,4,5-tetrahydro-2H-2-benzazepin-2-yl)-6-methylquinolin-4-yl]-2-methylpropane-1,2-diamine] — 25-fold lower, 0.072 µM
- NCC1(CNc2nc(N3CCS(=O)(=O)c4ccccc4C3)nc3ccc(CO)cc23)COC1 [Example 109-2, [4-({[3-(Aminomethyl)oxetan-3-yl]methyl}amino)-2-(1,1-dioxido-2,3-dihydro-1,4-benzothiazepin-4(5H)-yl)quinazolin-6-yl]methanol] — 1200-fold lower, 0.0015 µM
- O=S1(=O)CCN(c2cc(NCC(O)CO)c3cc(Cl)ccc3n2)Cc2ccccc21 (centres unmarked) [Example 32-2, 3-{[6-Chloro-2-(1,1-dioxido-2,3-dihydro-1,4-benzothiazepin-4(5H)-yl)quinolin-4-yl]amino}propane-1,2-diol] — within 1.5-fold, 2.45 µM
- Cc1ccc2nc(N3CCS(=O)(=O)c4ccccc4C3)cc(NC3(CN)COC3)c2c1 [Example 71, N-[3-(Aminomethyl)oxetan-3-yl]-2-(1,1-dioxido-2,3-dihydro-1,4-benzothiazepin-4(5H)-yl)-6-methylquinolin-4-amine] — 360-fold lower, 0.005 µM
- Cc1ccc2nc(N3CCS(=O)(=O)c4ccccc4C3)cc(N3C[C@H](O)C(C)(C)C3)c2c1 [Example 3-17, (R)-1-[2-(1,1-Dioxido-2,3-dihydro-1,4-benzothiazepin-4(5H)-yl)-6-methylquinolin-4-yl]-4,4-dimethyl-pyrrolidin-3-ol] — 2.8-fold higher, 5.05 µM
- Cc1ccc2nc(N3CCS(=O)(=O)c4ccccc4C3)cc(N3CCCNCC3)c2c1 [Example 3-36, 4-[4-(1,4-Diazepan-1-yl)-6-methylquinolin-2-yl]-2,3,4,5-tetrahydro-1,4-benzothiazepine 1,1-dioxide] — 19-fold lower, 0.092 µM
- Cc1ccc2nc(N3CCC(F)(F)c4ccccc4C3)cc(NCCN(C)C)c2c1 [Example 111-8, N′-[2-(5,5-Difluoro-1,3,4,5-tetrahydro-2H-2-benzazepin-2-yl)-6-methylquinolin-4-yl]-N,N-dimethylethane-1,2-diamine] — 6.3-fold lower, 0.283 µM
- Cc1ccc2nc(N3CCC(F)(F)c4ccccc4C3)nc(NCC(F)(F)CN)c2c1 [Example 117, N-[2-(5,5-Difluoro-1,3,4,5-tetrahydro-2H-2-benzazepin-2-yl)-6-methylquinazolin-4-yl]-2,2-difluoropropane-1,3-diamine] — 3.3-fold higher, 5.97 µM
- Cc1ccc2nc(N3CCS(=O)(=O)c4ccccc4C3)cc(N3CCC(CN)CC3)c2c1 [Example 9-1, 1-{1-[2-(1,1-Dioxido-2,3-dihydro-1,4-benzothiazepin-4(5H)-yl)-6-methylquinolin-4-yl]piperidin-4-yl}methanamine] — within 1.5-fold, 2.35 µM
- Cc1ccc2nc(N3CCS(=O)(=O)c4ccccc4C3)cc(OCCN)c2c1 [Example 97, 2-{[2-(1,1-Dioxido-2,3-dihydro-1,4-benzothiazepin-4(5H)-yl)-6-methylquinolin-4-yl]oxy}ethanamine] — 10-fold lower, 0.177 µM
- Cc1ccc2nc(N3CCS(=O)(=O)c4ccccc4C3)cc(NCC3(CN)COC3)c2c1 [Example 3-50, N-{[3-(Aminomethyl)oxetan-3-yl]methyl}-2-(1,1-dioxido-2,3-dihydro-1,4-benzothiazepin-4(5H)-yl)-6-methylquinolin-4-amine] — 4500-fold lower, 0.0004 µM
- O=S1(=O)CCN(c2cc(N[C@@H]3CNC[C@H]3O)c3ccccc3n2)Cc2ccccc21 (relative stereo) [Example 28-2, trans-4-{[2-(1,1-Dioxido-2,3-dihydro-1,4-benzothiazepin-4(5H)-yl)quinolin-4-yl]amino}pyrrolidin-3-ol] — 260-fold lower, 0.007 µM
- Cc1ccc2nc(N3CCS(=O)(=O)c4ccccc4C3)cc(NCC3COC3)c2c1 [Example 3-53, 2-(1,1-Dioxido-2,3-dihydro-1,4-benzothiazepin-4(5H)-yl)-6-methyl-N-(oxetan-3-ylmethyl)quinolin-4-amine] — 6.9-fold lower, 0.261 µM
- Cc1ccc2nc(N3CCS(=O)(=O)c4ccccc4C3)cc(N)c2c1 [Example 39, 2-(1,1-Dioxido-2,3-dihydro-1,4-benzothiazepin-4(5H)-yl)-6-methylquinolin-4-amine] — 19-fold lower, 0.092 µM
- Cc1ccc2c(c1)S(=O)(=O)CCN(c1cc(NCC3(N)COC3)c3cc(C)ccc3n1)C2 [Example 2-5, N-[(3-Aminooxetan-3-yl)methyl]-6-methyl-2-(8-methyl-1,1-dioxido-2,3-dihydro-1,4-benzothiazepin-4(5H)-yl)quinolin-4-amine] — 300-fold lower, 0.006 µM
